Assay results reported in publication PMC11271247 (SLAS discovery : advancing life sciences R & D, 2019).

Tests used:
[1] = test system: PANC/NIH microtissues (PANC-1 pancreatic cancer cells + NIH3T3 fibroblasts); format: cell-based, human; conditions: read-out: IC50 ATP; PANC/NIH spheroids, ATP content at treatment day 7
[2] = test system: SKOV/NIH microtissues (SKOV-3 ovarian cancer cells + NIH3T3 fibroblasts); format: cell-based, human; conditions: read-out: IC50 ATP; SKOV/NIH spheroids, ATP content at treatment day 7
[3] = test system: HEY/NIH microtissues (HEY-GFP ovarian cancer cells + NIH3T3 fibroblasts); format: cell-based, human; conditions: read-out: IC50 ATP; HEY/NIH spheroids, ATP content at treatment day 7
[4] = test system: NIH3T3 fibroblasts within HEY/NIH microtissues; conditions: day 3
[5] = test system: HEY/NIH3T3 microtissues; test: Microtissue size over time, HEY/NIH microtissues; format: cell-based, human; conditions: HEY/NIH3T3, % maximal response at 20 μM
[6] = test system: NIH3T3 fibroblasts within SKOV/NIH microtissues
[7] = test system: NIH3T3 fibroblasts within PANC/NIH microtissues; format: cell-based, mouse; conditions: PANC1/NIH, day 3 (acute toxicity)

Row | Structure (SMILES) | IC50 [1] [nM] | IC50 [2] [nM] | IC50 [3] [nM] | further results
1 | C=CC(=O)Nc1cc2c(Nc3ccc(F)c(Cl)c3)ncnc2cc1C#CC(C)(C)N1CCN(C)CC1 [AV-412] | 2440 | 80 | 1290 | –
2 | COC(=O)[C@]12CCC(C)(C)C[C@H]1[C@H]1C(=O)C=C3[C@@]4(C)C=C(C#N)C(=O)C(C)(C)[C@@H]4CC[C@@]3(C)[C@]1(C)CC2 [Bardoxolone methyl] | 1340 | – | – | –
3 | CC(C)C[C@H](NC(=O)[C@H](CCc1ccccc1)NC(=O)CN1CCOCC1)C(=O)N[C@@H](Cc1ccccc1)C(=O)N[C@@H](CC(C)C)C(=O)[C@@]1(C)CO1 [Carfilzomib] | – | – | – | therapeutic window, ratio of adverse to therapeutic effect [4]: 578 fold
4 | O=C1C(Cl)=C(NCCN2CCOCC2)C(=O)c2ncccc21 [DA-3003-1] | – | – | 7360 | –
5 | Cc1nc(Nc2ncc(C(=O)Nc3c(C)cccc3Cl)s2)cc(N2CCN(CCO)CC2)n1 [Dasatinib] | – | – | – | effect on tumor size early in the treatment [5]: reduce tumor size
6 | CNC(=O)[C@H](Cc1c[nH]c2ccccc12)NC(=O)[C@@H](CC(=O)NO)CC(C)C [GM-6001] | 9610 | 3860 | – | –
7 | CC1=C(C(=O)Nc2cc3cn[nH]c3cc2F)C(c2ccc(Cl)cc2F)N=C(c2ccnc(Cl)c2)N1 (centres unmarked) [GSK-25] | 9380 | 4830 | 6100 | –
8 | CN(C)CCCN=c1c2ccccc2n(C)c2[nH]c(=O)n(C)c(=O)c12 [HLI-373989] | – | – | 3760 | –
9 | CSc1cccc(Nc2ncc3cc(-c4c(Cl)cccc4Cl)c(=O)n(C)c3n2)c1 [PD-173955] | – | – | 479 | –
10 | Cc1ccc(/C=N/NC(=O)c2ccccc2Oc2ccccc2)o1 [PNU-74654] | – | 2840 | – | –
11 | C/C=C1\NC(=O)[C@H]2CSSCC/C=C/[C@H](CC(=O)N[C@H](C(C)C)C(=O)N2)OC(=O)[C@H](C(C)C)NC1=O [Romidepsin] | – | – | – | viability of the stromal cells [6]: significantly lowered the viability of the stromal cells
12 | O=C(O)C1CCCN(CCC=C(c2ccccc2)c2ccccc2)C1 (centres unmarked) [SK&F-89976A] | – | – | 15300 | –
13 | Cc1ccc(-c2ncn(-c3ccc(Nc4nccc(-c5cccc(N6CCOCC6)c5)n4)cc3)n2)cn1 [SR-3306] | 22 | 13 | 58 | –
14 | Cn1c(=O)c(F)c(Nc2ccc(I)cc2F)c2c(=O)n(C[C@@H](O)CO)cnc21 [TAK-733] | – | – | – | effect on tumor size early in the treatment [5]: reduce tumor size
15 | Nc1ccc(-c2ccc3ncc4ccc(=O)n(-c5cccc(C(F)(F)F)c5)c4c3c2)cn1 [Torin-2] | 1 | 2 | 27 | therapeutic window, ratio of adverse to therapeutic effect [7]: 5,524 fold
16 | c1cncc(CN2CCC(n3ncc4c(N5CCOCC5)nc(-c5ccc6[nH]ccc6c5)nc43)CC2)c1 [WAY-600] | 7380 | 507 | 1680 | effect on tumor size early in the treatment [5]: reduce tumor size
